Values after ≈ are worked out from the molar mass of the structure shown. Residues, ends and D or L forms follow the SMILES beside them.
How the values were obtained:
Assay type in all cases: cell-based
E.coli 110 = test system: E.coli 110
Description: (§1) Standard strains included S. aureus ATCC33592, S. aureus CICC25138, and Salmonella enterica ATCC14028, which were purchased from the China Center of Industrial Culture Collection (CICC). Standard strains including E.coli CMCC44102, Salmonella enterica CMCC50071, and S. aureus CMCC26003 were purchased from the National Center for Medical Culture Collections (CMCC). […] All experiments using the above strains were carried out in a BSL‐2 laboratory. The clinical laboratory of Qilu Hospital detected bacterial resistance to various antibiotics. All strains were streaked on Nutrient Broth (NB) agar medium and incubated overnight at 37°C.
(§2) The antimicrobial activity of the peptides was examined in sterile 96‐well plates using the broth microdilution according to the CLSI standard. The colonies were suspended in saline solution, the turbidity was adjusted to McFarland 0.5 to reach a bacterial concentration of 10^8 CFU/mL, and again diluted 100 times for the inhibition test. Then, 50 µL of bacterial suspension at 1 × 10^6 CFU/mL was incubated with the same volume of different concentrations of peptide solution [serial twofold dilutions in Mueller–Hinton Broth (Hopebio)]. […] All experiments were performed with three independent replicates.

P. aeruginosa 116 = test system: P. aeruginosa 116
Description: as §1, §2

P. aeruginosa 119 = test system: P. aeruginosa 119
Description: as §1, §2

S. aureus 129 = test system: S. aureus 129
Description: as §1, §2

E. faecium 1042 = test system: E. faecium 1042
Description: as §1, §2

S. aureus 103 = test system: S. aureus 103
Description: as §1, §2

K. pneumoniae 7713 = test system: K. pneumoniae 7713
Description: as §1, §2

E.coli 208 = test system: E.coli 208
Description: as §1, §2

E. faecium 21 = test system: E. faecium 21
Description: as §1, §2

S. aureus CICC25138 = test system: S. aureus CICC25138
Description: as §1, §2

S. aureus ATCC33592 = test system: S. aureus ATCC33592
Description: as §1, §2

P. aeruginosa 112 = test system: P. aeruginosa 112
Description: as §1, §2

SMILES | MIC (μg/mL) E.coli 110 (E.coli 110) [µg/mL] | MIC (μg/mL) P. aeruginosa 116 (P. aeruginosa 116) [µg/mL] | MIC (μg/mL) P. aeruginosa 119 (P. aeruginosa 119) [µg/mL] | MIC (μg/mL) S. aureus 129 (S. aureus 129) [µg/mL] | MIC (μg/mL) E. faecium 1042 (E. faecium 1042) [µg/mL] | MIC (μg/mL) S. aureus 103 (S. aureus 103) [µg/mL] | MIC (μg/mL) K. pneumoniae 7713 (K. pneumoniae 7713) [µg/mL] | MIC (μg/mL) E.coli 208 (E.coli 208) [µg/mL] | MIC (μg/mL) E. faecium 21 (E. faecium 21) [µg/mL] | MIC (μg/mL) S. aureus CICC25138 (S. aureus CICC25138) [µg/mL] | MIC (μg/mL) S. aureus ATCC33592 (S. aureus ATCC33592) [µg/mL] | MIC (μg/mL) P. aeruginosa 112 (P. aeruginosa 112) [µg/mL]
CC[C@H](C)[C@H](NC(=O)[C@H](CCCCN)NC(=O)[C@H](CCCNC(=N)N)NC(=O)[C@@H](N)CCCCN)C(=O)N[C@@H](CCCCN)C(=O)N[C@@H](Cc1c[nH]c2ccccc12)C(=O)N[C@@H](CCCCN)C(=O)N[C@H](C(=O)N[C@@H](CCCNC(=N)N)C(=O)N[C@@H](Cc1c[nH]c2ccccc12)C(=O)N[C@@H](Cc1ccccc1)C(=O)N[C@H](C(=O)N[C@@H](Cc1ccc(O)cc1)C(=O)N[C@@H](CC(C)C)C(N)=O)[C@@H](C)O)C(C)C [QLX-3DV-7] (H-KRKIKWKVRWFTYL-NH2) | 16 (≈ 8.2 µM) | 8 (≈ 4.1 µM) | 64 (≈ 32.8 µM) | 16 (≈ 8.2 µM) | 8 (≈ 4.1 µM) | 16 (≈ 8.2 µM) | 16 (≈ 8.2 µM) | 32 (≈ 16.4 µM) | 8 (≈ 4.1 µM) | 16 (≈ 8.2 µM) | 16 (≈ 8.2 µM) | 32 (≈ 16.4 µM)
CC[C@H](C)[C@H](NC(=O)[C@H](CCCCN)NC(=O)[C@H](CCCNC(=N)N)NC(=O)[C@@H](N)CCCCN)C(=O)N[C@@H](CCCCN)C(=O)N[C@@H](Cc1c[nH]c2ccccc12)C(=O)N[C@@H](Cc1c[nH]c2ccccc12)C(=O)N[C@H](C(=O)N[C@@H](CCCNC(=N)N)C(=O)N[C@@H](Cc1c[nH]c2ccccc12)C(=O)N[C@H](C(=O)N[C@H](C(=O)N[C@@H](CCCCN)C(=O)N[C@@H](CC(C)C)C(N)=O)[C@@H](C)O)[C@@H](C)CC)C(C)C [QLX-3DV-8] (H-KRKIKWWVRWITKL-NH2) |  | 8 (≈ 4.12 µM) | 32 (≈ 16.5 µM) | 8 (≈ 4.12 µM) | 8 (≈ 4.12 µM) | 8 (≈ 4.12 µM) | 8 (≈ 4.12 µM) |  | 4 (≈ 2.06 µM) | 16 (≈ 8.25 µM) |  | 16 (≈ 8.25 µM)
CC[C@H](C)[C@H](NC(=O)[C@H](CCCCN)NC(=O)[C@H](Cc1c[nH]c2ccccc12)NC(=O)[C@@H](N)CCCCN)C(=O)N[C@@H](CCCCN)C(=O)N[C@@H](Cc1c[nH]c2ccccc12)C(=O)N[C@@H](CCCNC(=N)N)C(=O)N[C@H](C(=O)N[C@@H](CCCNC(=N)N)C(=O)N[C@@H](Cc1c[nH]c2ccccc12)C(=O)N[C@@H](Cc1ccccc1)C(=O)N[C@@H](CCCCN)C(=O)N[C@@H](CC(C)C)C(=O)N[C@@H](CC(C)C)C(N)=O)C(C)C [QLX-3DV-9] (H-KWKIKWRVRWFKLL-NH2) | 8 (≈ 4.03 µM) | 4 (≈ 2.01 µM) | 16 (≈ 8.05 µM) | 8 (≈ 4.03 µM) | 2 (≈ 1.01 µM) | 8 (≈ 4.03 µM) | 16 (≈ 8.05 µM) | 16 (≈ 8.05 µM) | 2 (≈ 1.01 µM) | 8 (≈ 4.03 µM) | 16 (≈ 8.05 µM) | 16 (≈ 8.05 µM)
CC[C@H](C)[C@H](NC(=O)[C@H](CCCCN)NC(=O)[C@H](Cc1c[nH]c2ccccc12)NC(=O)[C@@H](N)CCCCN)C(=O)N[C@@H](CCCCN)C(=O)N[C@@H](Cc1c[nH]c2ccccc12)C(=O)N[C@@H](Cc1c[nH]cn1)C(=O)N[C@H](C(=O)N[C@@H](CCCNC(=N)N)C(=O)N[C@@H](Cc1c[nH]c2ccccc12)C(=O)N[C@@H](Cc1ccccc1)C(=O)N[C@@H](CCCNC(=N)N)C(=O)N[C@H](C(=O)N[C@@H](CC(C)C)C(N)=O)C(C)C)C(C)C [QLX-3DV-10] (H-KWKIKWHVRWFRVL-NH2) | 32 (≈ 16.1 µM) | 8 (≈ 4.04 µM) | 64 (≈ 32.3 µM) | 16 (≈ 8.07 µM) | 8 (≈ 4.04 µM) | 8 (≈ 4.04 µM) | 16 (≈ 8.07 µM) | 32 (≈ 16.1 µM) | 8 (≈ 4.04 µM) | 32 (≈ 16.1 µM) | 16 (≈ 8.07 µM) | 32 (≈ 16.1 µM)
